Experimental data reported in patent publication US20140056964A1, “GRANZYME B INHIBITOR COMPOSITIONS, METHODS AND USES FOR PROMOTING WOUND HEALING” (THE UNIVERSITY OF BRITISH COLUMBIA, priority 2010, published 2014).
pIC50: −log10 of the molar value. “Also recorded” adds a separate entry of the source.

Columns and labels:
Granzyme B [1] = target: T1, Granzyme B (Homo sapiens, UniProt P10144); test: continuous colorimetric Granzyme B inhibition assay with substrate Ac-IEPD-pNA; format: biochemical; details: substrate Ac-IEPD-pNA 20 μM, 37° C., pNA release at 405 nm
T1 sequence (P10144 21-247): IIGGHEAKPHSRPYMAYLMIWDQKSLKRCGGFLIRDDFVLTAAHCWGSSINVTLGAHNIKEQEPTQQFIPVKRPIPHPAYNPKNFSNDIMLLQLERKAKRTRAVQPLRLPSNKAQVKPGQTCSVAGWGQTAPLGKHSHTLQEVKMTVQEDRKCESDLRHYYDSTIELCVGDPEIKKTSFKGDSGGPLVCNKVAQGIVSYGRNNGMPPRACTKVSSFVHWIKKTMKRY
Procedure: Small molecule libraries (ZINC—Irwin J J and Shoichet B K, 2005. J. Chem Inf Model 4591:177-182; NCI—Voigt, J. H. et al. J. Chem. Inf Comput. Sci. 2001, 41, 702-712) were screened in silico for candidate Granzyme B inhibitory compounds. Several candidate small molecule inhibitors were identified and subjected to an in vitro Granzyme B inhibition assay. More specifically, a continuous colormetric assay for Granzyme B activity was carried out with the substrate Ac-IEPD-pNA. Briefly, 8 ug/ml Granzyme B, 20 μM substrate, and increasing concentrations of the inhibitor of interest was incubated in a final reaction volume of 50 ul. The reaction buffer consisted of 50 mM HEPES pH 7.5, 10% sucrose, 0.1% CHAPS and 5 mM DTT and reactions were carried out at 37° C. pNA release and Granzyme B inhibition was monitored at 405 nm on a Tecan Safire microplate reader.
As detailed herein and as detailed in Tables A and B herein, candidate inhibitors, and IC50 concentration obtained from the inhibition assay are set out below.

[2] = target: T2, purified human Granzyme B (Homo sapiens, UniProt P10144); test: proteoglycan cleavage assay (recombinant decorin, biglycan, betaglycan incubated with Granzyme B +/- inhibitor, SDS-PAGE); format: biochemical; details: for Granzyme B cleavage of decorin: 24 h, 30 ul, Coomassie Blue stain
T2 construct: purchased Axxora, San Diego, Calif
T2 sequence (P10144 21-247): as above
Procedure: For ECM cleavage assays, Granzyme B and/or the inhibitor 3,4-dichloroisocoumarin (DCI), were incubated for 4 and 24 hours at room temperature, with decorin, biglycan or soluble betaglycan and visualized by Ponceau staining. Cleavage fragments were subjected to Edman degradation for cleavage site identification.
Proteoglycan cleavage assays. The recombinant human PGs, decorin (0.5 μg, Abnova, Walnut, Calif.), biglycan and betaglycan (1.5-5 ug, R&D Systems, Minneapolis, Minn.) were incubated at room temperature for 24 h with 25-500 nM purified human Granzyme B (Axxora, San Diego, Calif.), in 50 mM Tris buffer, pH 7.4. For inhibitor studies, Granzyme B was incubated in the presence or absence of 200 μM of the serine protease inhibitor 3,4-dichloroisocoumarin (DCI; Santa Cruz Biotechnology Inc, Santa Cruz, Calif.) or inhibitor solvent control, dimethyl sulfoxide (DMSO; Sigma-Aldrich, St Louis, Mo.) for 4 h or 24 h. After incubation, proteins were denatured, separated on a 10% SDS-polyacrylamide gel and transferred to a nitrocellulose membrane. Ponceau stain (Fisher Scientific, Waltham, Mass.) was used to detect cleavage fragments.
Samples were run on a 10% gel, imaged with Ponceau stain and scanned.
In this Example, incubations were performed at RT for 24 h in a total reaction volume of 30 ul. Samples were run on a 10% gel and imaged by Coomassic Blue stain. With reference to FIG. 17, the asterisk=full length protein.
Samples were run on a 10% gel, imaged with Ponceau stain and scanned. […] DMSO vehicle control was not included due to redundancy. Asterisk=full length protein; Arrow=cleavage fragments. Obstruction in Granzyme B/Betaglycan lane affecting first 2 cleavage fragments.

Granzyme B [3] = target: T1, Granzyme B; test: TGF-β release assay from proteoglycan/TGF-β complexes (Western blot of supernatants); format: biochemical; details: for release of TGF-β from betaglycan/TGF-β complexes by Granzyme B: 20 ug/ml betaglycan, 10 ng TGF-β, 24 h at RT
Procedure: Cytokine release was assessed in supernatants using Western blotting. TGF-β release assays were carried out using a method similar to that previously described for the MMPs (Imai et al. 1997). Briefly, decorin, biglycan and betaglycan (15 μg/mL) were coated onto 48 well tissue culture plastic plates and allowed to incubate overnight at 4° C. in PBS, pH 7.4. After blocking with 1% bovine serum albumin, 20 ng of active TGF-β1 per well (Peprotech Inc, Rocky Hill, N.J.) was added in DPBS containing calcium and magnesium (#14040, Invitrogen, Carlsbad, Calif.) for 5 h at RT. Granzyme B, with or without DCI, was then added to the wells. After 24 h, supernatants were removed, denatured, and run on a 15% SDS-PAGE gel. Once transferred to a nitrocellulose membrane and blocked with 10% skim milk, the membrane was probed using a rat anti-human TGF-β1 antibody (1:200, BD Biosciences, Franklin Lakes, N.J.) and IRDye® 800 conjugated affinity purified anti-Rat IgG (1:3000, Rockland Inc, Gilbertsville, Pa.). Bands were imaged using the Odyssey Infrared Imaging System (LI-COR Biotechnology, Lincoln, Nebr.). In this Example, 20 ug/ml betaglycan was coated onto 48 well plates and incubated with 10 ng of TGF-β. Excess TGF-β was washed off the plate and betaglycan/TGF-β complexes were incubated with Granzyme B+/− inhibitors for 24 h at RT. Supernatants (containing released TGF-β) were collected and Western blotted for TGF-β. There is little non-specific dissociation of TGF-β into supernatants in the absence of Granzyme B (2; see FIG. 16). TGF-β is released by Granzyme B after 24 h of incubation (4; see FIG. 16).

Granzyme B [4] = target: T1, Granzyme B; test: fibronectin cleavage by Granzyme B +/- inhibitor; format: biochemical; details: inhibitor at 3.12 nM
Procedure: As shown in FIGS. 21A and B herein, incubations as described herein were performed with fibronectin (FN) and Granzyme B, both in the absence of inhibitor Willoughby 20 and in the presence of inhibitor Willoughby 20. Compound Willoughby 20 inhibits Granzyme B cleavage of FN at 3.12 nM.

Granzyme B [5] = target: T1, Granzyme B; test: cleavage of endogenous HCASMC-derived ECM (fibronectin, decorin Western blot) by 100 nM Granzyme B +/- inhibitor; format: biochemical; details: inhibitor at 150 μM
Procedure: More specifically, as it relates to FIG. 18, to synthesize endogenous ECM, human coronary artery smooth muscle cells were seeded in 6 well plates and incubated at confluency for 7 days in serum starvation media (SMGM+0.2% FBS). Cells were removed from the plates by incubation with 0.25M Ammonium Hydroxide for 20 min. This treatment removes cells while leaving the surrounding extracellular matrix intact. Subsequently, 100 nM Granzyme B and the inhibitor of interest were incubated on the endogenous ECM for 24 h. Supernatants from the plates (containing cleavage fragments) were run on an SDS-PAGE gel and Western blotted for fibronectin or decorin. DMSO solvent control was not included due to redundancy. Asterisk=full length protein; Arrow=cleavage fragments, star denotes full length. […] Cells were removed from the plates by incubation with 0.25M Ammonium Hydroxide for 20 min. This treatment removes cells while leaving the surrounding extracellular matrix intact. Subsequently, 100 nM Granzyme B and the inhibitor of interest were incubated on the endogenous ECM for 24 h. Supernatants from the plates (containing cleavage fragments) were run on to an SDS-PAGE gel and Western blotted for fibronectin or decorin. DMSO solvent control was not included due to redundancy. Asterisk=full length protein; Arrow=cleavage fragments, star denotes full length.

[6] = tested on: human coronary artery smooth muscle cells (HCASMC); test: Human coronary artery smooth muscle cell TGF-β bioavailability assay (SMAD-3 / Erk phosphorylation); format: cell-based; details: supernatants of betaglycan release assay (Granzyme B +/- DCI) on cells for 16 h
Procedure: To determine if the TGF-β released by Granzyme B was active, supernatants from the above release assay were incubated on human coronary artery smooth muscle cells (HCASMC) and SMAD/Erk activation was examined by Western blotting. For bioavailability assays, HCASMCs (Clonetics/Lonza, Walkersville, Md.) at passage 3-5 were seeded in 6 well plates in smooth muscle cell growth media (SmGM, Clonetics) +5% fetal bovine serum (FBS, Invitrogen) and grown to confluence. At this time, cells were quiesced by serum removal for 24 h, after which time 150 μl of release assay supernatants (as described above) or a 10 ng TGF-β positive control were added to the cells for 16 h. Cell lysates were assessed by SDS-PAGE/Western blotting for phosphorylated-Erk 1/2 (p-Erk1/2; 1:1000, Cell Signaling Technology, Danvers, Mass.), total Erk 1/2 (t-Erk1/2; 1:1000, Cell Signaling Technology), phosphorylated-SMAD3 (p-SMAD3; 1:2000, Epitomics, Burlingame, Calif.), total SMAD3 (t-SMAD3; 1:500, BD Biosciences) and the loading controls β-actin (1:5000, Sigma-Aldrich) or β-tubulin (1:3000, Millipore, Billerica, Mass.). Secondary IRDye® 800 conjugated antibodies (1:3000, Rockland Inc) were utilized and imaged with the Odyssey Infrared Imaging System (LI-COR Biotechnology). […]

COC(=O)CC/C(O)=C(/C(=O)CCC(=O)Nc1ccc(Cl)cc1Cl)C(=O)OC [ZINC05317216]
pIC50 (Granzyme B [1]): ~4.30

Cc1ccc(NC(=O)/C(O)=C(/C(=O)/C=C/c2ccccc2)C2OC(=O)c3ccccc32)c(C)c1 (stereo not drawn) [ZINC05723787]
pIC50 (Granzyme B [1]): ~4.40 | Granzyme B cleavage of betaglycan ([2]; inhibitor at 50 μM, RT, 4 h): partially inhibits | Granzyme B cleavage of betaglycan ([2]; inhibitor at 100 μM, RT, 4 h): completely

O=C(Nc1ccc(Cl)cc1Cl)/C(O)=C\C(=O)[C@@H]1CCOC1=O (stereo in doubt) [ZINC05605947]
pIC50 (Granzyme B [1]): ~3.49

Cc1ccc(NC(=O)/C(O)=C(/C(=O)c2ccc3ccccc3c2)[C@H]2OC(=O)c3ccccc32)c(C)c1 (stereo in doubt) [ZINC05316154]
pIC50 (Granzyme B [1]): ~3.71

Cc1ccc(NC(=O)/C(O)=C(/C(=O)c2ccc3ccccc3c2)[C@@H]2OC(=O)c3ccccc32)cc1C [ZINC05723503]
pIC50 (Granzyme B [1]): ~3.57

CCOc1ccccc1NC(=O)/C(O)=C(/C(=O)c1ccc2ccccc2c1)[C@@H]1OC(=O)c2ccccc21 [ZINC05398428]
pIC50 (Granzyme B [1]): ~3.59

CC[C@H](C)[C@H](NC(=O)Cc1csc2ccccc12)C(=O)N[C@H]1CCc2cccc3c2N(C1=O)[C@H](C(=O)NCc1c[nH]nn1)C3 [Willoughby 20, Azepino[3,2,1-hi]indole-2-carboxamide, 5-[[(2S,3S)-2-[(2-benzo[b]thien-3-ylacetyl)amino]-3-methyl-1-oxopentyl]amino]-1,2,4,5,6,7-hexahydro-4-oxo-N-(1H-1,2,3-triazol-5-ylmethyl)-, (2S,5S)-]
pIC50 (Granzyme B [1]): ~5.51 | Granzyme B cleavage of decorin ([2]; RT): Inhibits | Granzyme B cleavage of decorin ([2]; RT, listed as compound 20): prevented | Granzyme B cleavage of betaglycan ([2]; room temperature, 24 hours, 30 μl, Ponceau stain): inhibits | release of TGF-β from betaglycan/TGF-β complexes by Granzyme B (Granzyme B [3]): inhibited | Granzyme B cleavage of fibronectin (FN) (Granzyme B [4]): inhibits

CC(=O)c1ccc(NC(=O)/C(O)=C(\C(=O)/C=C\c2ccccc2)[C@@H]2OC(=O)c3ccccc32)cc1 [ZINC05723764]
pIC50 (Granzyme B [1]): ~4.60 | Granzyme B cleavage of betaglycan ([2]; inhibitor at 100 μM, RT, 4 h): does not inhibit | decorin cleavage by Granzyme B (Granzyme B [5]): effective

O=c1oc(Cl)c(Cl)c2ccccc12 [DCI, 3,4-dichloroisocoumarin]
Granzyme B-mediated cleavage of decorin, biglycan and betaglycan ([2]; 200 μM DCI, 4 h and 24 h, room temperature, Ponceau stain): effectively inhibited | release of TGF-β from betaglycan/TGF-β complexes by Granzyme B (Granzyme B [3]): partially inhibited | release of TGF-β from decorin, biglycan and betaglycan by Granzyme B (Granzyme B [3]; 24 h incubation, Western blot of supernatants): not released; also recorded: inhibited; also recorded: no release evident | TGF-β signaling (SMAD-3 and Erk 1/2 phosphorylation) in HCASMC [6]: limited TGF-β signaling

CC(=O)c1ccccc1NC(=O)/C(O)=C(/C(=O)c1ccccc1-c1ccccc1)[C@@H]1OC(=O)c2ccccc21 [ZINC05723646]
pIC50 (Granzyme B [1]): ~3.60

O=C1CCC(=O)/C(=C(/O)CCC(=O)Nc2cccc(Cl)c2)C1 [ZINC05315460]
pIC50 (Granzyme B [1]): ~4.00

CC(=O)CCC(=O)CC(=O)CCC(=O)Nc1cc(Cl)ccc1Cl [ZINC05316859]
pIC50 (Granzyme B [1]): ~3.60
